Assay results published in patent US20120115845A1, “THERAPEUTIC AGENTS” (priority 2007, published 2012).

Columns and labels:
[1] = target: T1, human GHS receptor (Homo sapiens, UniProt Q92847); assay: h bind IC50 (binding assay, Table 1); settings: human receptor; Table 1
[2] = target: T1, human GHS receptor; assay: Ghrelin IP1 agonist assay (IP1 HTRF); type: cell-based; set-up: expressed in transfected cells; host or cells: HEK293s; settings: for Emax: 2 h, agonist effect as % maximal effect of GHRP-6 (5 μM), read-out: h IP1 ag %; for EC50: HEK293s cells stably expressing human GHS receptor, 2 hours at 37° C., read-out: h IP1 ag EC50
Method in brief: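 Cells: HEK293s stably expressing human GHS receptor, in stimulation buffer containing 0.02% fatty acid free BSA.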

T1 sequence (Q92847 whole entry): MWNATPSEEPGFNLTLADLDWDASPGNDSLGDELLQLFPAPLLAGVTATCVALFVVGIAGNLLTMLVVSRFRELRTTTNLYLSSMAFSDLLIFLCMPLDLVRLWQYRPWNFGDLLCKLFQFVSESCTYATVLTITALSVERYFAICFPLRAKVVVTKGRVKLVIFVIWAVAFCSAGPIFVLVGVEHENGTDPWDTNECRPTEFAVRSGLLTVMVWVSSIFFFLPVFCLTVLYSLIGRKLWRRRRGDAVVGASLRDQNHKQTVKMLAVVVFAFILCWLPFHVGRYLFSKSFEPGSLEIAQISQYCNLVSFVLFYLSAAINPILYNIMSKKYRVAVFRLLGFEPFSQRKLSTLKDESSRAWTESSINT

Structure (SMILES)	IC50 [1] [µM]	Emax [2] [%]	EC50 [2] [µM]
CCN(CC)CCCS(=O)(=O)c1ccc2nc(NC(=O)NC(=O)c3cc(N4CCOCC4)ccc3Cl)sc2c1 [Example 97, 2-Chloro-N-(6-(3-(diethylamino)propylsulfonyl)benzothiazol-2-ylcarbamoyl)-5-morpholinobenzamide]	0.0042	8.13	0.00428
CCN(CC)CCCS(=O)(=O)c1ccc2nc(NC(=O)NC(=O)c3cc(-n4cccn4)ccc3Cl)sc2c1 [Example 98, 2-Chloro-N-(6-(3-(diethylamino)propylsulfonyl)benzothiazol-2-ylcarbamoyl)-5-(1H-pyrazol-1-yl)benzamide]	0.0087	9.19	0.0015
CN1CCC(S(=O)(=O)c2ccc3nc(NC(=O)NC(=O)c4cc(-n5cccn5)ccc4Cl)sc3c2)CC1 [Example 100, 2-Chloro-N-(6-(1-methylpiperidin-4-ylsulfonyl)benzothiazol-2-ylcarbamoyl)-5-(1H-pyrazol-1-yl)benzamide]	0.0273	0	≥ 20
CS(=O)(=O)c1ccc2nc(NC(=O)NC(=O)c3c(Cl)cccc3Cl)sc2c1 [Example 101, 2,6-Dichloro-N-[(6-methylsulfonylbenzothiazol-2-yl)carbamoyl]benzamide]	0.284	7.89	0.206
CS(=O)(=O)c1ccc2nc(NC(=O)NC(=O)c3ccccc3Cl)sc2c1 [Example 102, 2-Chloro-N-[(6-methylsulfonylbenzothiazol-2-yl)carbamoyl]benzamide]	0.116	24.2	0.0578
CS(=O)(=O)c1ccc2nc(NC(=O)NC(=O)c3ccccc3Br)sc2c1 [Example 103, 2-Bromo-N-[(6-methylsulfonylbenzothiazol-2-yl)carbamoyl]benzamide]	0.239	20.5	0.454
CS(=O)(=O)c1ccc2nc(NC(=O)NC(=O)c3ccccc3[N+](=O)[O-])sc2c1 [Example 104, N-[(6-Methylsulfonylbenzothiazol-2-yl)carbamoyl]-2-nitro-benzamide]	0.742	15.1	0.772
CS(=O)(=O)c1ccc2nc(NC(=O)NC(=O)c3ccccc3-c3ccccc3)sc2c1 [Example 105, N-[(6-Methylsulfonylbenzothiazol-2-yl)carbamoyl]-2-phenyl-benzamide]	0.215	39.4	0.0986
CS(=O)(=O)c1ccc2nc(NC(=O)NC(=O)c3c(F)cccc3Cl)sc2c1 [Example 106, 2-Chloro-6-fluoro-N-[(6-methylsulfonylbenzothiazol-2-yl)carbamoyl]benzamide]	0.216	12.9	0.0328
CS(=O)(=O)c1ccc2nc(NC(=O)NC(=O)c3ccc(F)cc3Cl)sc2c1 [Example 107, 2-Chloro-4-fluoro-N-[(6-methylsulfonylbenzothiazol-2-yl)carbamoyl]benzamide]	0.306	19.3	0.0276
CS(=O)(=O)c1ccc2nc(NC(=O)NC(=O)c3ccccc3F)sc2c1 [Example 108, 2-Fluoro-N-[(6-methylsulfonylbenzothiazol-2-yl)carbamoyl]benzamide]	1.64	8.69	24.3
CS(=O)(=O)c1ccc2nc(NC(=O)NC(=O)c3cccc(F)c3Cl)sc2c1 [Example 110, 2-Chloro-3-fluoro-N-[(6-methylsulfonylbenzothiazol-2-yl)carbamoyl]benzamide]	0.392	15.8	0.0917
COc1ccc(C(=O)NC(=O)Nc2nc3ccc(S(C)(=O)=O)cc3s2)c(Cl)c1OC [Example 111, 2-Chloro-3,4-dimethoxy-N-[(6-methylsulfonylbenzothiazol-2-yl)carbamoyl]benzamide]	1.27	14.1	0.335
CS(=O)(=O)c1ccc(C(=O)NC(=O)Nc2nc3ccc(S(C)(=O)=O)cc3s2)c(Cl)c1 [Example 113, 2-Chloro-4-methylsulfonyl-N-[(6-methylsulfonylbenzothiazol-2-yl)carbamoyl]benzamide]	1.66	10.8	1.29
CS(=O)(=O)c1ccc2nc(NC(=O)NC(=O)c3ccc(N4CCOCC4)cc3Cl)sc2c1 [Example 115, 2-Chloro-N-[(6-methylsulfonylbenzothiazol-2-yl)carbamoyl]-4-morpholin-4-yl-benzamide]	0.0634	9.95	2.03
CS(=O)(=O)c1ccc2nc(NC(=O)NC(=O)c3ccc(-n4cccn4)cc3Cl)sc2c1 [Example 116, 2-Chloro-N-[(6-methylsulfonylbenzothiazol-2-yl)carbamoyl]-4-pyrazol-1-yl-benzamide]	0.036	45.1	0.4
CS(=O)(=O)c1ccc2nc(NC(=O)NC(=O)c3ccc(N4CCCC4)cc3Cl)sc2c1 [Example 117, 2-Chloro-N-[(6-methylsulfonylbenzothiazol-2-yl)carbamoyl]-4-pyrrolidin-1-yl-benzamide]	0.0378	16.8	0.0159

Structure (SMILES)	IC50 [1] [µM]	Emax [2] [%]	EC50 [2] [µM]
CS(=O)(=O)c1ccc2nc(NC(=O)NC(=O)c3ccccc3I)sc2c1 [Example 118, 2-Iodo-N-[(6-methylsulfonylbenzothiazol-2-yl)carbamoyl]benzamide]	0.464	9.59	0.114
Cc1ccc(C)n1-c1ccc(C(=O)NC(=O)Nc2nc3ccc(S(C)(=O)=O)cc3s2)c(Cl)c1 [Example 119, 2-Chloro-4-(2,5-dimethylpyrrol-1-yl)-N-[(6-methylsulfonylbenzothiazol-2-yl)carbamoyl]benzamide]	0.0243	9.26	15.7
COc1ccc(C(=O)NC(=O)Nc2nc3ccc(S(C)(=O)=O)cc3s2)c(-c2ccc(F)cc2)c1 [Example 123, 2-(4-Fluorophenyl)-4-methoxy-N-[(6-methylsulfonylbenzothiazol-2-yl)carbamoyl]benzamide]	0.12	31.2	0.0545
COc1ccc(-c2ccccc2C(=O)NC(=O)Nc2nc3ccc(S(C)(=O)=O)cc3s2)cc1 [Example 124, 2-(4-Methoxyphenyl)-N-[(6-methylsulfonylbenzothiazol-2-yl)carbamoyl]benzamide]	0.135	54.5	0.524
CS(=O)(=O)c1ccc2nc(NC(=O)NC(=O)c3ccccc3Oc3ccccc3)sc2c1 [Example 127, N-[(6-Methylsulfonylbenzothiazol-2-yl)carbamoyl]-2-phenoxy-benzamide]	0.0561	36.6	0.32
Cc1ccccc1C(=O)NC(=O)Nc1nc2ccc(S(C)(=O)=O)cc2s1 [Example 128, 2-Methyl-N-[(6-methylsulfonylbenzothiazol-2-yl)carbamoyl]benzamide]	0.1	17.3	0.219
CCSc1ccccc1C(=O)NC(=O)Nc1nc2ccc(S(C)(=O)=O)cc2s1 [Example 130, 2-Ethylsulfanyl-N-[(6-methylsulfonylbenzothiazol-2-yl)carbamoyl]benzamide]	0.288	31.1	0.668
CS(=O)(=O)c1ccc2nc(NC(=O)NC(=O)c3ccccc3COc3ccccc3)sc2c1 [Example 131, N-[(6-Methylsulfonylbenzothiazol-2-yl)carbamoyl]-2-(phenoxymethyl)benzamide]	0.229	17.5	0.191
CSc1ccccc1C(=O)NC(=O)Nc1nc2ccc(S(C)(=O)=O)cc2s1 [Example 132, 2-Methylsulfanyl-N-[(6-methylsulfonylbenzothiazol-2-yl)carbamoyl]benzamide]	0.653	15.5	3.68
CS(=O)(=O)c1ccc2nc(NC(=O)NC(=O)c3ccccc3Sc3ccccc3)sc2c1 [Example 133, N-[(6-Methylsulfonylbenzothiazol-2-yl)carbamoyl]-2-phenylsulfanyl-benzamide]	0.0215	41.7	11
CS(=O)(=O)c1ccc2nc(NC(=O)NC(=O)c3ccccc3-n3cccc3)sc2c1 [Example 134, N-[(6-Methylsulfonylbenzothiazol-2-yl)carbamoyl]-2-pyrrol-1-yl-benzamide]	0.218	63.9	0.0133
CC(C)c1ccccc1C(=O)NC(=O)Nc1nc2ccc(S(C)(=O)=O)cc2s1 [Example 136, N-[(6-Methylsulfonylbenzothiazol-2-yl)carbamoyl]-2-propan-2-yl-benzamide]	0.197	21.5	0.217
CS(=O)(=O)c1ccc2nc(NC(=O)NC(=O)c3ccccc3OS(=O)(=O)C(F)(F)F)sc2c1 [Example 137, N-[(6-Methylsulfonylbenzothiazol-2-yl)carbamoyl]-2-(trifluoromethylsulfonyloxy)benzamide]	1.75	24.1	2.32
CS(=O)(=O)c1ccc2nc(NC(=O)NC(=O)c3cc(S(N)(=O)=O)ccc3Cl)sc2c1 [Example 138, 2-Chloro-N-[(6-methylsulfonylbenzothiazol-2-yl)carbamoyl]-5-sulfamoyl-benzamide]	0.448	0	≥ 25
O=C(NC(=O)c1ccccc1Cl)Nc1nc2ccc(S(=O)(=O)C3CCCNC3)cc2s1 (stereo not drawn) [Example 139, 2-Chloro-N-[[6-(3-piperidylsulfonyl)benzothiazol-2-yl]carbamoyl]benzamide]	0.107	46.7	0.0273
CC(C)N1CCCC(S(=O)(=O)c2ccc3nc(NC(=O)NC(=O)c4ccccc4Cl)sc3c2)C1 (stereo not drawn) [Example 140, 2-Chloro-N-[[6-[(1-propan-2-yl-3-piperidyl)sulfonyl]benzothiazol-2-yl]carbamoyl]benzamide]	0.289	42.5	0.062
